Data on 6 compounds can be found in US12252524B2, “GIP/GLP1 co-agonist compounds” (Eli Lilly and Company, priority 2018, dated 2025).

Numbered stars: 1 amine (or outer) side, 2 acyl side, 3 side chain; on linkers, the order of the positions; unused ones are H or OH. Square brackets hold non-standard residues; d marks the D form. Side chains are listed from the residue outwards. Peptide text beside a SMILES is read from it. * marks the point of attachment. C20 diacid = O=C(O)CCCCCCCCCCCCCCCCCCC(=O)*; C18 diacid = O=C(O)CCCCCCCCCCCCCCCCC(=O)*; αMePhe(2-F) = C[C@](N)(Cc1ccccc1F)C(=O)O; γGlu = O=C(O)[C@H](CCC(=O)[*:2])N[*:1]; Desaminohistidyl = O=C(CCc1c[nH]cn1)*; Desaminotyrosyl = O=C(CCc1ccc(O)cc1)*; αMeY = C[C@](N)(Cc1ccc(O)cc1)C(=O)O; αMeL = CC(C)C[C@](C)(N)C(=O)O; αMeP = C[C@@]1(C(=O)O)CCCN1; Orn = NCCC[C@H](N)C(=O)O; AEEA = NCCOCCOCC(=O)O; Aib = CC(C)(N)C(=O)O Bounds are passed on as bounds.

Assay [1] addresses human GLP-1 receptor (GLP-1R) (Homo sapiens, UniProt P43220). In words: cAMP pharmacological functional assay in presence of casein, hGLP-1R. The format is cell-based. To be noted: HEK293 cells expressing hGLP-1R, 0.1% Casein, geometric mean; read-out: hGLP1R cAMP Rel EC50 nM (SEM, n).
For assay [2], the target named is T1, gastric inhibitory peptide receptor (GIPR) (Homo sapiens, UniProt P48546).
T1 sequence (P48546 22-466): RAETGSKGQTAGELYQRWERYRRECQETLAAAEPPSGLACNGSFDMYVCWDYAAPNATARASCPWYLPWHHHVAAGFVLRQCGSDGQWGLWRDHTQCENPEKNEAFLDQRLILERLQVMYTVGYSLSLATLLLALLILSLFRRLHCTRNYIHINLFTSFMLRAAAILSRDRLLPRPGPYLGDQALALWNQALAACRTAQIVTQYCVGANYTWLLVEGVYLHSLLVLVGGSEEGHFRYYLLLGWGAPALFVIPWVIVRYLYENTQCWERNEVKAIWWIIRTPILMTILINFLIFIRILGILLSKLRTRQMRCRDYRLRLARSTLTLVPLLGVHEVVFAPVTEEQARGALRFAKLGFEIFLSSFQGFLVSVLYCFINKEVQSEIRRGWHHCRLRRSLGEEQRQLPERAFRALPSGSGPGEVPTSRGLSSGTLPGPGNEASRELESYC
As to the kind of experiment: cAMP pharmacological functional assay in presence of casein, hGIPR. The format is cell-based. The note with it: HEK293 cells expressing hGIPR, 0.1% Casein, geometric mean; read-out: hGIPR cAMP Rel EC50 nM (SEM, n).

Chain of human GLP-1 receptor (GLP-1R) (P43220 24-463): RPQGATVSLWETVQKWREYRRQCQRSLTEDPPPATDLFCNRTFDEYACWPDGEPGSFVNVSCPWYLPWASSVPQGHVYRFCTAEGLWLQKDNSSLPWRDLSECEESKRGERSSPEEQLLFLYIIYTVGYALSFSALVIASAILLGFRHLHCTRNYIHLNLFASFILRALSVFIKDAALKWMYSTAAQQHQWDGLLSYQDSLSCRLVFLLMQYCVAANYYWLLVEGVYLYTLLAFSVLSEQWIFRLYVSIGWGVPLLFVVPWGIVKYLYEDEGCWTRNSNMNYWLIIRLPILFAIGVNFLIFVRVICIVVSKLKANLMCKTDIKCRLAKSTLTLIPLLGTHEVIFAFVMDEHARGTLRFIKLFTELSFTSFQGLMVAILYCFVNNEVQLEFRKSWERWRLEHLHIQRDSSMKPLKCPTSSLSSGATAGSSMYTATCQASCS

In the case of `CC[C@H](C)[C@H](NC(=O)[C@H](CC(C)C)NC(=O)[C@H](Cc1ccc(O)cc1)NC(=O)[C@H](CCC(=O)O)NC(=O)[C@@H](NC(=O)[C@H](Cc1ccccc1)NC(=O)[C@H](C)NC(=O)[C@H](CCC(N)=O)NC(=O)[C@H](CCC(N)=O)NC(=O)[C@H](C)NC(=O)[C@H](CCCCNC(=O)COCCOCCNC(=O)COCCOCCNC(=O)CC[C@H](NC(=O)CCCCCCCCCCCCCCCCCCC(=O)O)C(=O)O)NC(=O)[C@H](CCC(=O)O)NC(=O)[C@H](CC(=O)O)NC(=O)[C@H](CC(C)C)NC(=O)[C@H](CC(C)C)NC(=O)[C@@H](NC(=O)[C@H](CO)NC(=O)[C@H](Cc1ccc(O)cc1)NC(=O)[C@H](CC(=O)O)NC(=O)[C@H](CO)NC(=O)[C@@H](NC(=O)[C@H](Cc1ccccc1)NC(=O)[C@@H](NC(=O)CNC(=O)[C@H](CCC(=O)O)NC(=O)C(C)(C)NC(=O)CCc1ccc(O)cc1)[C@@H](C)O)[C@@H](C)O)[C@@H](C)CC)[C@@H](C)CC)C(=O)N[C@@H](CCC(=O)O)C(=O)NCC(=O)NCC(=O)N1CCC[C@H]1C(=O)N[C@@H](CO)C(=O)N[C@@H](CO)C(=O)NCC(=O)N[C@@H](C)C(=O)N1CCC[C@H]1C(=O)N1CCC[C@H]1C(=O)N1CCC[C@H]1C(=O)N[C@@H](CO)C(N)=O` [Example 199] (Desaminotyrosyl-[Aib]EGTFTSDYSILLDEK([AEEA-AEEA-γGlu-C20 diacid])AQQAFIEYLIEGGPSSGAPPPS-NH2), the EC50 is 0.0422 nM in assay [1] and above 30 nM in assay [2].

Consider `CC[C@H](C)[C@H](NC(=O)[C@H](CC(C)C)NC(=O)[C@H](Cc1ccc(O)cc1)NC(=O)[C@H](CCC(=O)O)NC(=O)[C@@H](NC(=O)[C@H](Cc1ccccc1)NC(=O)[C@H](C)NC(=O)[C@H](CCC(N)=O)NC(=O)[C@H](CCC(N)=O)NC(=O)[C@H](C)NC(=O)[C@H](CCCCNC(=O)COCCOCCNC(=O)COCCOCCNC(=O)CC[C@H](NC(=O)CCCCCCCCCCCCCCCCCCC(=O)O)C(=O)O)NC(=O)[C@H](CCC(=O)O)NC(=O)[C@H](CC(=O)O)NC(=O)[C@H](CC(C)C)NC(=O)[C@H](CC(C)C)NC(=O)[C@@H](NC(=O)[C@H](CO)NC(=O)[C@H](Cc1ccc(O)cc1)NC(=O)[C@H](CC(=O)O)NC(=O)[C@H](CO)NC(=O)[C@@H](NC(=O)[C@H](Cc1ccccc1)NC(=O)[C@@H](NC(=O)CNC(=O)[C@H](CCC(=O)O)NC(=O)[C@]1(C)CCCN1C(=O)CCc1c[nH]cn1)[C@@H](C)O)[C@@H](C)O)[C@@H](C)CC)[C@@H](C)CC)C(=O)N[C@@H](CCC(=O)O)C(=O)NCC(=O)NCC(=O)N1CCC[C@H]1C(=O)N[C@@H](CO)C(=O)N[C@@H](CO)C(=O)NCC(=O)N[C@@H](C)C(=O)N1CCC[C@H]1C(=O)N1CCC[C@H]1C(=O)N1CCC[C@H]1C(=O)N[C@@H](CO)C(N)=O` [Example 201] (Desaminohistidyl-[αMeP]EGTFTSDYSILLDEK([AEEA-AEEA-γGlu-C20 diacid])AQQAFIEYLIEGGPSSGAPPPS-NH2), for which the results for the EC50 in assay [1] and in assay [2] were 0.0385 nM and above 30 nM, respectively.

Regarding `CC[C@H](C)[C@H](NC(=O)[C@H](CC(C)C)NC(=O)[C@](C)(Cc1ccc(O)cc1)NC(=O)[C@@H](CCC(=O)O)NC(=O)[C@@H](NC(=O)[C@H](Cc1ccccc1)NC(=O)[C@@H](NC(=O)C(C)(C)NC(=O)[C@H](CCC(N)=O)NC(=O)[C@H](C)NC(=O)[C@H](CCCCNC(=O)COCCOCCNC(=O)COCCOCCNC(=O)CC[C@H](NC(=O)CCCCCCCCCCCCCCCCC(=O)O)C(=O)O)NC(=O)[C@H](CCCN)NC(=O)[C@H](CC(=O)O)NC(=O)[C@H](CC(C)C)NC(=O)[C@](C)(CC(C)C)NC(=O)[C@@H](NC(=O)[C@H](CO)NC(=O)[C@H](C)NC(=O)[C@H](CC(=O)O)NC(=O)[C@H](CO)NC(=O)[C@@H](NC(=O)[C@](C)(Cc1ccccc1F)NC(=O)[C@@H](NC(=O)CNC(=O)[C@H](CCC(=O)O)NC(=O)C(C)(C)NC(=O)[C@@H](N)Cc1ccc(O)cc1)[C@@H](C)O)[C@@H](C)O)[C@@H](C)CC)[C@@H](C)O)[C@@H](C)CC)C(=O)N[C@@H](CCC(=O)O)C(=O)NCC(=O)NCC(=O)N1CCC[C@H]1C(=O)N[C@@H](CO)C(=O)N[C@@H](CO)C(=O)NCC(=O)N[C@@H](C)C(=O)N1CCC[C@H]1C(=O)N1CCC[C@H]1C(=O)N1CCC[C@H]1C(=O)N[C@@H](CO)C(N)=O` [Example 245] (H-Y[Aib]EGT[αMePhe(2-F)]TSDASI[αMeL]LD[Orn]K([AEEA-AEEA-γGlu-C18 diacid])AQ[Aib]TFI[dE][αMeY]LIEGGPSSGAPPPS-NH2), the concentration for a half-maximal effect (EC50) came to 0.0222 nM in assay [1] and 0.0552 nM in assay [2].

Regarding `CC[C@H](C)[C@H](NC(=O)[C@H](CC(C)C)NC(=O)[C@H](Cc1ccc(O)cc1)NC(=O)[C@H](CCC(=O)O)NC(=O)[C@@H](NC(=O)[C@H](Cc1ccccc1)NC(=O)[C@H](C)NC(=O)[C@H](CCCCN)NC(=O)[C@H](CCC(N)=O)NC(=O)[C@H](C)NC(=O)[C@H](CCCCNC(=O)COCCOCCNC(=O)COCCOCCNC(=O)CC[C@H](NC(=O)CCCCCCCCCCCCCCCCCCC(=O)O)C(=O)O)NC(=O)[C@H](CCCCN)NC(=O)[C@H](CC(=O)O)NC(=O)[C@H](CC(C)C)NC(=O)[C@H](CC(C)C)NC(=O)[C@@H](NC(=O)[C@H](CO)NC(=O)[C@H](Cc1ccc(O)cc1)NC(=O)[C@H](CC(=O)O)NC(=O)[C@H](CO)NC(=O)[C@@H](NC(=O)[C@H](Cc1ccccc1)NC(=O)[C@@H](NC(=O)CNC(=O)[C@H](CCC(=O)O)NC(=O)C(C)(C)NC(=O)[C@@H](N)Cc1ccc(O)cc1)[C@@H](C)O)[C@@H](C)O)[C@@H](C)CC)[C@@H](C)CC)C(=O)N[C@@H](CCC(=O)O)C(=O)NCC(=O)NCC(=O)N1CCC[C@H]1C(=O)N[C@@H](CO)C(=O)N[C@@H](CO)C(=O)NCC(=O)N[C@@H](C)C(=O)N1CCC[C@H]1C(=O)N1CCC[C@H]1C(=O)N1CCC[C@H]1C(=O)N[C@@H](CO)C(N)=O` [Example 256], the EC50 was 0.0506 nM in assay [1] and 0.643 nM in assay [2].

Regarding `CC[C@H](C)[C@H](NC(=O)[C@H](CC(C)C)NC(=O)[C@H](Cc1ccc(O)cc1)NC(=O)[C@H](CCC(=O)O)NC(=O)[C@@H](NC(=O)[C@H](Cc1ccccc1)NC(=O)[C@H](C)NC(=O)[C@H](CCCNC(=N)N)NC(=O)[C@H](CCC(N)=O)NC(=O)[C@H](C)NC(=O)[C@H](CCCCNC(=O)COCCOCCNC(=O)COCCOCCNC(=O)CC[C@H](NC(=O)CCCCCCCCCCCCCCCCCCC(=O)O)C(=O)O)NC(=O)[C@H](CCCCN)NC(=O)[C@H](CC(=O)O)NC(=O)[C@H](CC(C)C)NC(=O)[C@H](CC(C)C)NC(=O)[C@@H](NC(=O)[C@H](CO)NC(=O)[C@H](Cc1ccc(O)cc1)NC(=O)[C@H](CC(=O)O)NC(=O)[C@H](CO)NC(=O)[C@@H](NC(=O)[C@H](Cc1ccccc1)NC(=O)[C@@H](NC(=O)CNC(=O)[C@H](CCC(=O)O)NC(=O)C(C)(C)NC(=O)[C@@H](N)Cc1ccc(O)cc1)[C@@H](C)O)[C@@H](C)O)[C@@H](C)CC)[C@@H](C)CC)C(=O)N[C@@H](CCC(=O)O)C(=O)NCC(=O)NCC(=O)N1CCC[C@H]1C(=O)N[C@@H](CO)C(=O)N[C@@H](CO)C(=O)NCC(=O)N[C@@H](C)C(=O)N1CCC[C@H]1C(=O)N1CCC[C@H]1C(=O)N1CCC[C@H]1C(=O)N[C@@H](CO)C(N)=O` [Example 257] (H-Y[Aib]EGTFTSDYSILLDKK([AEEA-AEEA-γGlu-C20 diacid])AQRAFIEYLIEGGPSSGAPPPS-NH2; N-terminus assumed), the concentration giving a half-maximal response (EC50) in assay [1] is 0.0779 nM; in assay [2], 0.474 nM.

For the compound `CC[C@H](C)[C@H](NC(=O)[C@H](CC(C)C)NC(=O)[C@H](Cc1ccc(O)cc1)NC(=O)[C@H](CCC(=O)O)NC(=O)[C@@H](NC(=O)[C@H](Cc1ccccc1)NC(=O)[C@H](C)NC(=O)[C@H](CCCCN)NC(=O)[C@H](CCC(N)=O)NC(=O)[C@H](C)NC(=O)[C@H](CCCCNC(=O)COCCOCCNC(=O)COCCOCCNC(=O)CC[C@H](NC(=O)CCCCCCCCCCCCCCCCCCC(=O)O)C(=O)O)NC(=O)[C@H](CCC(=O)O)NC(=O)[C@H](CC(=O)O)NC(=O)[C@H](CC(C)C)NC(=O)[C@H](CC(C)C)NC(=O)[C@@H](NC(=O)[C@H](CO)NC(=O)[C@H](Cc1ccc(O)cc1)NC(=O)[C@H](CC(=O)O)NC(=O)[C@H](CO)NC(=O)[C@@H](NC(=O)[C@H](Cc1ccccc1)NC(=O)[C@@H](NC(=O)CNC(=O)[C@H](CCC(=O)O)NC(=O)C(C)(C)NC(=O)[C@@H](N)Cc1ccc(O)cc1)[C@@H](C)O)[C@@H](C)O)[C@@H](C)CC)[C@@H](C)CC)C(=O)N[C@@H](CCC(=O)O)C(=O)NCC(=O)NCC(=O)N1CCC[C@H]1C(=O)N[C@@H](CO)C(=O)N[C@@H](CO)C(=O)NCC(=O)N[C@@H](C)C(=O)N1CCC[C@H]1C(=O)N1CCC[C@H]1C(=O)N1CCC[C@H]1C(=O)N[C@@H](CO)C(N)=O` [Example 258] (H-Y[Aib]EGTFTSDYSILLDEK([AEEA-AEEA-γGlu-C20 diacid])AQKAFIEYLIEGGPSSGAPPPS-NH2; N-terminus assumed), the results for the EC50 in assay [1] and in assay [2] were 0.174 nM and 2.43 nM, respectively.
